Experimental data from ChEMBL document CHEMBL1909294, “Translating clinical findings into knowledge in drug safety evaluation--drug induced liver injury prediction system (DILIps)” (PLoS Comput Biol, 2011).
Structures can show the parent of a compound that is named as a salt.

Assays:
[1] = test system: Hepatotoxicity;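 for DILI positive/negative: binary label assigned from drug-induced liver injury observed in pharmaceutical company records, forming the validation set for the DILIps prediction system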;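 for HepSE cholecystitis: Cholecystitis-related hepatic side effect score drawn from the DILIps (drug-induced liver injury prediction) training data set; call rule not given here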;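 for HepSE cirrhosis: cirrhosis hepatic side effect score taken from the DILIps (drug-induced liver injury prediction) training set; call rule not given here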;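 for HepSE elevated liver function tests: hepatic side effect score for raised liver function tests, as recorded in the DILIps training set used for predicting drug-induced liver injury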;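 for HepSE hepatitis: Hepatitis-related hepatic side effect score taken from the training data of DILIps, a prediction system for drug-induced liver injury; call rule not given here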;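 for HepSE jaundice: Jaundice-related hepatic side-effect score drawn from the training data of the DILIps (drug-induced liver injury prediction system); call rule not given here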
[2] = test system: Hepatotoxicity; remark: listed apart in the source;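 for DILI positive/negative: binary label assigned from drug-induced liver injury observed in pharmaceutical company records, forming the validation set for the DILIps prediction system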;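 for HepSE cholecystitis: Cholecystitis-related hepatic side effect score drawn from the DILIps (drug-induced liver injury prediction) training data set; call rule not given here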;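 for HepSE cirrhosis: cirrhosis hepatic side effect score taken from the DILIps (drug-induced liver injury prediction) training set; call rule not given here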;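 for HepSE elevated liver function tests: hepatic side effect score for raised liver function tests, as recorded in the DILIps training set used for predicting drug-induced liver injury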;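 for HepSE hepatitis: Hepatitis-related hepatic side effect score taken from the training data of DILIps, a prediction system for drug-induced liver injury; call rule not given here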;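 for HepSE jaundice: Jaundice-related hepatic side-effect score drawn from the training data of the DILIps (drug-induced liver injury prediction system); call rule not given here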
[3] = test system: Hepatotoxicity; remark: listed apart in the source;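 for DILI positive/negative: binary label assigned from drug-induced liver injury observed in pharmaceutical company records, forming the validation set for the DILIps prediction system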;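 for HepSE cholecystitis: Cholecystitis-related hepatic side effect score drawn from the DILIps (drug-induced liver injury prediction) training data set; call rule not given here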;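 for HepSE cirrhosis: cirrhosis hepatic side effect score taken from the DILIps (drug-induced liver injury prediction) training set; call rule not given here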;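 for HepSE elevated liver function tests: hepatic side effect score for raised liver function tests, as recorded in the DILIps training set used for predicting drug-induced liver injury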;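 for HepSE hepatitis: Hepatitis-related hepatic side effect score taken from the training data of DILIps, a prediction system for drug-induced liver injury; call rule not given here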;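 for HepSE jaundice: Jaundice-related hepatic side-effect score drawn from the training data of the DILIps (drug-induced liver injury prediction system); call rule not given here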
[4] = test system: Hepatotoxicity; remark: listed apart in the source;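 for DILI positive/negative: binary label assigned from drug-induced liver injury observed in pharmaceutical company records, forming the validation set for the DILIps prediction system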;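 for HepSE cholecystitis: Cholecystitis-related hepatic side effect score drawn from the DILIps (drug-induced liver injury prediction) training data set; call rule not given here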;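 for HepSE elevated liver function tests: hepatic side effect score for raised liver function tests, as recorded in the DILIps training set used for predicting drug-induced liver injury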;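 for HepSE hepatitis: Hepatitis-related hepatic side effect score taken from the training data of DILIps, a prediction system for drug-induced liver injury; call rule not given here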;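 for HepSE jaundice: Jaundice-related hepatic side-effect score drawn from the training data of the DILIps (drug-induced liver injury prediction system); call rule not given here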
[5] = test system: Hepatotoxicity; remark: listed apart in the source
[6] = test system: Hepatotoxicity; remark: listed apart in the source
[7] = test system: Hepatotoxicity; remark: listed apart in the source
[8] = test system: Hepatotoxicity; remark: listed apart in the source
[9] = test system: Hepatotoxicity; remark: listed apart in the source
[10] = test system: Hepatotoxicity; remark: listed apart in the source
[11] = test system: Hepatotoxicity; remark: listed apart in the source
[12] = test system: Hepatotoxicity; remark: listed apart in the source
[13] = test system: Hepatotoxicity; remark: listed apart in the source
[14] = test system: Hepatotoxicity; remark: listed apart in the source
[15] = test system: Hepatotoxicity; remark: listed apart in the source

## CN1C(=O)OC(C)(C)C1=O [TRIMETHADIONE]
[1]
  DILI positive/negative: 1

## CN1CCN(C(c2ccccc2)c2ccccc2)CC1 [CYCLIZINE]
[1]
  DILI positive/negative: 1

## CC(C)COCC(CN(Cc1ccccc1)c1ccccc1)N1CCCC1.Cl.O (stereo unspecified) [BEPRIDIL HYDROCHLORIDE]
[1]
  DILI positive/negative: 1

## CCC1(c2ccccc2)CCC(=O)NC1=O (stereo unspecified) [GLUTETHIMIDE]
[1]
  DILI positive/negative: 1

## CN[C@@H](C)[C@@H](O)c1ccccc1.Cl [PSEUDOEPHEDRINE HYDROCHLORIDE]
[1]
  DILI positive/negative: 0

## S=C=Nc1cccc2ccccc12 [1-NAPHTHYLISOTHIOCYANATE]
[1]
  DILI positive/negative: 1

## CC(=O)CC(c1ccc([N+](=O)[O-])cc1)c1c(O)c2ccccc2oc1=O (stereo unspecified) [ACENOCOUMAROL]
[1]
  DILI positive/negative: 1

## CCO[C@@H](Cc1ccc(OCCN2c3ccccc3Oc3ccccc32)cc1)C(=O)O [RAGAGLITAZAR]
[1]
  DILI positive/negative: 0

## O=C1NCN(c2ccccc2)C12CCN(CCCC(c1ccc(F)cc1)c1ccc(F)cc1)CC2
[1]
  DILI positive/negative: 1

## COC(=O)C1=C(C)NC(C)=C(C(=O)OCC(C)C)C1c1ccccc1[N+](=O)[O-] (stereo unspecified) [NISOLDIPINE]
[1]
  DILI positive/negative: 0

## COC(=O)Nc1nc2ccc(C(=O)c3cccs3)cc2[nH]1 [NOCODAZOLE]
[1]
  DILI positive/negative: 0

## CN(CCCCCCCCCCN(C)C(=O)Oc1cccc([N+](C)(C)C)c1)C(=O)Oc1cccc([N+](C)(C)C)c1.[Br-].[Br-] [DEMECARIUM BROMIDE]
[1]
  DILI positive/negative: 1

## COc1cc(C(=O)NCc2ccc(OCCN(C)C)cc2)cc(OC)c1OC.Cl [TRIMETHOBENZAMIDE HYDROCHLORIDE]
[1]
  DILI positive/negative: 1

## CC(N)C(O)c1ccccc1.Cl (stereo unspecified) [PHENYLPROPANOLAMINE HYDROCHLORIDE]
[1]
  DILI positive/negative: 0

## CN1c2ccccc2C(NCCCCCCC(=O)O)c2ccc(Cl)cc2S1(=O)=O (stereo unspecified) [TIANEPTINE]
[1]
  DILI positive/negative: 1

## O=C1O[C@H]([C@@H](O)CO)C(O)=C1O [ASCORBIC ACID]
[1]
  DILI positive/negative: 0

## C=CCOC=O [ALLYL FORMATE]
[1]
  DILI positive/negative: 1

## Nc1ncnc2c1ncn2[C@@H]1O[C@H](CO)[C@@H](O)[C@@H]1O [VIDARABINE]
[1]
  DILI positive/negative: 0

## C=C1CC[C@H](O)C/C1=C/C=C1\CCC[C@]2(C)[C@@H]([C@H](C)CCCC(C)(C)O)CC[C@@H]12.O [CALCIFEDIOL]
[1]
  DILI positive/negative: 1

## CC(C)(Sc1cc(C(C)(C)C)c(O)c(C(C)(C)C)c1)Sc1cc(C(C)(C)C)c(O)c(C(C)(C)C)c1 [PROBUCOL]
[1]
  DILI positive/negative: 0

## CC1(COc2ccc(CC3SC(=O)NC3=O)cc2)CCCCC1 (stereo unspecified) [CIGLITAZONE]
[1]
  DILI positive/negative: 1

## CN(C)CCN(Cc1ccccc1)c1ccccn1.Cl [TRIPELENNAMINE HYDROCHLORIDE]
[1]
  DILI positive/negative: 1

## Cl.Cl.OCCN1CCN(CC/C=C2/c3ccccc3Sc3ccc(C(F)(F)F)cc32)CC1
[1]; Liver
  DILI positive/negative: 0

## COc1ccc(OC)c(C(O)C(C)N)c1.Cl (stereo unspecified) [METHOXAMINE HYDROCHLORIDE]
[1]
  DILI positive/negative: 0

## CO[C@@]1(NC(=O)C(C(=O)[O-])c2ccc(O)cc2)C(=O)N2C(C(=O)[O-])=C(CSc3nnnn3C)CO[C@@H]21.[Na+].[Na+] (stereo partly specified) [MOXALACTAM DISODIUM]
[1]
  DILI positive/negative: 0

## CCOc1ccc(NC(C)=O)cc1 [PHENACETIN]
[1]
  DILI positive/negative: 1

## CCOC(=O)C1(c2ccccc2)CCN(CCc2ccc(N)cc2)CC1.Cl [ANILERIDINE HYDROCHLORIDE]
[1]
  DILI positive/negative: 0

## CCCCNc1ccc(C(=O)OCCN(C)C)cc1.Cl [TETRACAINE HYDROCHLORIDE]
[1]
  DILI positive/negative: 0

## CCN(CC)Cc1cc(Nc2ccnc3cc(Cl)ccc23)ccc1O.Cl.Cl.Cl
[1]; Liver
  DILI positive/negative: 1

## CC(=O)Nc1ccc2c(c1)Cc1ccccc1-2 [2-ACETYLAMINOFLUORENE]
[1]
  DILI positive/negative: 1

## COc1ccc2[nH]cc(CCNC(C)=O)c2c1 [MELATONIN]
[1]
  DILI positive/negative: 0

## C=CC(O)CC#N (stereo unspecified)
[1]
  DILI positive/negative: 0

## C#C[C@]1(O)CC[C@H]2[C@@H]3CCc4cc(O)ccc4[C@H]3CC[C@@]21C [ETHINYL ESTRADIOL]
[1]
  DILI positive/negative: 1

## CN1CCN2c3ccccc3Cc3ccccc3C2C1 (stereo unspecified) [MIANSERIN]
[1]
  DILI positive/negative: 1

## C[C@]12CC[C@@H]3c4ccc(O)cc4CC[C@H]3[C@@H]1CCC2=O [ESTRONE]
[1]
  DILI positive/negative: 1

## C[C@@H](CO)NC(=O)[C@@H]1C=C2c3cccc4[nH]cc(c34)C[C@H]2N(C)C1.O=C(O)/C=C\C(=O)O [ERGONOVINE MALEATE]
[1]
  DILI positive/negative: 0

## CC1(C)S[C@@H]2[C@H](NC(=O)[C@H](NC(=O)N3CCNC3=O)c3ccccc3)C(=O)N2[C@H]1C(=O)[O-].[Na+] [AZLOCILLIN SODIUM]
[1]
  DILI positive/negative: 0

## Cl.NCCNCCNCCN
[1]; Liver
  DILI positive/negative: 1

## COc1cccc(OC)c1C(=O)N[C@@H]1C(=O)N2[C@@H]1SC(C)(C)[C@@H]2C(=O)[O-].[Na+]
[1]
  DILI positive/negative: 1

## N[C@@H](Cc1ccc(O)c(O)c1)C(=O)O [LEVODOPA]
[1]
  DILI positive/negative: 0

## Br.COc1ccc2c(c1)[C@]13CCCC[C@@H]1[C@H](C2)N(C)CC3.O [DEXTROMETHORPHAN HYDROBROMIDE]
[1]
  DILI positive/negative: 0

## CC(=O)OCC1=C(C(=O)[O-])N2C(=O)[C@@H](NC(=O)CSc3ccncc3)[C@H]2SC1.[Na+] [CEPHAPIRIN SODIUM]
[1]
  DILI positive/negative: 0

## CC[N+](C)(C)c1cccc(O)c1.[Cl-] [EDROPHONIUM CHLORIDE]
[1]
  DILI positive/negative: 0

## O=C(O)c1ccncc1 [ISONICOTINIC ACID]
[1]
  DILI positive/negative: 0

## Cl.Cl.O=C(CCN1CCN2CCCC2C1)N1c2ccccc2Sc2ccc(Cl)cc21 (stereo unspecified) [AZACLORZINE HYDROCHLORIDE]
[1]
  DILI positive/negative: 1

## C=CCO [ALLYL ALCOHOL]
[1]
  DILI positive/negative: 1

## Cl.Nc1cc(Cl)cc(Cl)c1
[1]
  DILI positive/negative: 0

## CN1CCC(=C2c3ccccc3CCc3cccnc32)CC1.O=C(O)/C=C\C(=O)O.O=C(O)/C=C\C(=O)O [AZATADINE MALEATE]
[1]
  DILI positive/negative: 1

## O=C1NC(=O)C(O)(O)C(=O)N1
[1]
  DILI positive/negative: 0

## LACTOSE, ANHYDROUS
[1]
  DILI positive/negative: 0

## Cc1ccc2cc3c(ccc4ccccc43)c3c2c1CC3 [3-METHYLCHOLANTHRENE]
[1]
  DILI positive/negative: 1

## C=C1CC[C@@]2(O)[C@H]3Cc4ccc(O)c5c4[C@@]2(CCN3CC2CC2)[C@H]1O5
[1]
  DILI positive/negative: 0

## Nc1ncn([C@@H]2O[C@H](CO)[C@@H](O)[C@H]2O)c(=O)n1 [AZACITIDINE]
[1]; Liver
  DILI positive/negative: 1

## CN(C)[C@@H]1C(O)=C(C(N)=O)C(=O)[C@@]2(O)C(O)=C3C(=O)c4c(O)ccc(Cl)c4[C@@](C)(O)[C@H]3C[C@@H]12.Cl [CHLORTETRACYCLINE HYDROCHLORIDE]
[1]
  DILI positive/negative: 1

## CC(=O)c1ccc(S(=O)(=O)NC(=O)NC2CCCCC2)cc1 [ACETOHEXAMIDE]
[1]
  DILI positive/negative: 1

## COc1cc(CNC(=O)CCCC/C=C/C(C)C)ccc1O [CAPSAICIN]
[1]
  DILI positive/negative: 0

## CCCCC(CC)COC(=O)C=Cc1ccc(OC)cc1 (stereo unspecified) [OCTINOXATE]
[1]
  DILI positive/negative: 1

## CC(=O)OCC1=C(C(=O)[O-])N2C(=O)[C@@H](NC(=O)Cc3cccs3)[C@H]2SC1.[Na+] [CEPHALOTHIN SODIUM]
[1]
  DILI positive/negative: 1

## Oc1ncc(N(CCCl)CCCl)c(O)n1 [URACIL MUSTARD]
[1]; Liver
  DILI positive/negative: 1

## Brc1ccccc1 [BROMOBENZENE]
[1]
  DILI positive/negative: 1

## COc1cc2nc(N(C)CCCNC(=O)C3CCCO3)nc(N)c2cc1OC (stereo unspecified) [ALFUZOSIN]
[2]
  HepSE_jaundice: 1
[3]
  HepSE_cholecystitis: 0
[4]
  HepSE_hepatitis: 0
[5]
  HepSE_elevated liver function tests: 0
[6]
  HepSE_hepatic necrosis: 0
[7]
  HepSE_cirrhosis: 0
[8]
  HepSE_bilirubinemia: 0
[9]
  HepSE_liver fatty: 0
[10]
  HepSE_hepatomegaly: 0
[11]
  HepSE_liver function tests abnormal: 0
[12]
  HepSE_Combined Scores: 2
[13]
  HepSE_cholelithiasis: 0
[14]
  HepSE_liver disease: 1
[15]
  HepSE_hepatic failure: 0

## O=[N+]([O-])OCC(CO[N+](=O)[O-])O[N+](=O)[O-] [NITROGLYCERIN]
[2]
  HepSE_jaundice: 0
[3]
  HepSE_cholecystitis: 0
[4]
  HepSE_hepatitis: 0
[5]
  HepSE_elevated liver function tests: 0
[6]
  HepSE_hepatic necrosis: 0
[7]
  HepSE_cirrhosis: 0
[8]
  HepSE_bilirubinemia: 0
[9]
  HepSE_liver fatty: 0
[10]
  HepSE_hepatomegaly: 0
[11]
  HepSE_liver function tests abnormal: 0
[12]
  HepSE_Combined Scores: 0
[13]
  HepSE_cholelithiasis: 0
[14]
  HepSE_liver disease: 0
[15]
  HepSE_hepatic failure: 0

## C[C@]12CC[C@@H]3c4ccc(OC(=O)N(CCCl)CCCl)cc4CC[C@H]3[C@@H]1CC[C@@H]2O [ESTRAMUSTINE]
[2]
  HepSE_jaundice: 0
[3]
  HepSE_cholecystitis: 0
[4]
  HepSE_hepatitis: 0
[5]
  HepSE_elevated liver function tests: 0
[6]
  HepSE_hepatic necrosis: 0
[7]
  HepSE_cirrhosis: 0
[8]
  HepSE_bilirubinemia: 0
[9]
  HepSE_liver fatty: 0
[10]
  HepSE_hepatomegaly: 0
[11]
  HepSE_liver function tests abnormal: 0
[12]
  HepSE_Combined Scores: 0
[13]
  HepSE_cholelithiasis: 0
[14]
  HepSE_liver disease: 0
[15]
  HepSE_hepatic failure: 0

## C[C@@H]1C[C@H]2[C@H]3[C@H]([C@@H](O)C[C@]2(C)[C@@]1(O)C(=O)CO)[C@@]1(C)C=CC(=O)C=C1C[C@H]3Cl [ALCLOMETASONE]
[2]
  HepSE_jaundice: 0
[3]
  HepSE_cholecystitis: 0
[4]
  HepSE_hepatitis: 0
[5]
  HepSE_elevated liver function tests: 0
[6]
  HepSE_hepatic necrosis: 0
[7]
  HepSE_cirrhosis: 0
[8]
  HepSE_bilirubinemia: 0
[9]
  HepSE_liver fatty: 0
[10]
  HepSE_hepatomegaly: 0
[11]
  HepSE_liver function tests abnormal: 0
[12]
  HepSE_Combined Scores: 0
[13]
  HepSE_cholelithiasis: 0
[14]
  HepSE_liver disease: 0
[15]
  HepSE_hepatic failure: 0
